Source: patent publication US20240317752A1, “6-SUBSTITUTED-9H-PURINE DERIVATIVES AND RELATED USES” (Black Diamond Therapeutics, Inc., priority 2021, published 2024)

Target: T1, BaF3 BRAF-KIAA1549 fusion cells (Homo sapiens, UniProt P15056)
T1 construct: The BRAF-KIAA1549 fusion mutant was subcloned into pMXs-IRES-Blasticidin (RTV-016, Cell Biolabs, San Diego, CA); fused on or other part: Q9HCM3 (UPF0606 protein KIAA1549)
Experiment: BaF3 BRAF-KIAA1549 fusion cell proliferation assay (CellTiterGlo)
Type: cell-based
Conditions: 96 hours incubation, potency code
Procedure: Retroviral Production: The BRAF-KIAA1549 fusion mutant was subcloned into pMXs-IRES-Blasticidin (RTV-016, Cell Biolabs, San Diego, CA). Retrovirus was produced by transfection of HEK 293T cells with the retroviral BRAF mutant expression vector pMXs-IRES-Blasticidin (RTV-016, Cell Biolabs), pCMV-Gag-Pol vector and pCMV-VSV-G-Envelope vector. Briefly, HEK 293T cells were plated in Poly-D-lysine coated 6-well plate (2.5×10^5 cells per well) and incubated overnight. The next day, retroviral plasmids (1 μg of BRAF-KIAA fusion mutant, 0.32 μg of pCMV-Gag-Pol and 0.165 μg pCMV-VSV-G) were mixed in 300 μL of Optimem (31985, Life Technologies). The mixture was incubated at room temperature for 5 minutes and then added to Optimem containing transfection reagent Lipofectamine (11668, Invitrogen) and incubated for 20 minutes. The mixture was then added dropwise to HEK 293T cells. The next day the medium was replaced with fresh culture medium and retrovirus was harvested at 24 hours.
Generation of BRAF-KIAA1549 fusion stable cell line: BaF3 cells were plated in V-bottom 96 well plate (COSTAR #3894) in 80 μL of RPMI/10% FBS and 0.01 ng/ml mouse IL-3; supplemented with 8 μg/mL polybrene (4×10^4 cells/well). Cells were transduced with 20 μL of BRAF-KIAA1549 fusion viral supernatant by centrifuging for 30 minutes at 1000 rpm. Cells were placed in a 37° C. incubator overnight. Next day 100 μL of RPMI/10% FBS and 0.01 ng/ml mouse IL-3 was added. After 24 hours, 100 μL of cells were transferred to a 24 well plate containing 900 μL of RPMI/10% FBS and 15 μg/mL Blasticidin. Contents of the 24 well plate were sampled for cell viability via CellTiterGlo (Promega) over a 2-week period.
Assay for cell proliferation: BaF3 BRAF-KIAA1549 fusion cells were resuspended at 1.5×10^5c/mL in RPMI containing 10% Heat Inactivated FBS, 1% L-glutamine and dispensed in duplicate ([…]) into 384 well plates. To determine the effect of compound on cell proliferation, BaF3 BRAF-KIAA1549 fusion cells were incubated for 96 hours in the presence of vehicle control (DMSO) or compound at varying concentrations. Inhibition of cell growth was determined by luminescent quantification (Envision by Perkin Elmer) of intracellular ATP content using CellTiterGlo (Promega), according to the protocol provided by the manufacturer. To determine the IC50 values, the vehicle-treated cells were normalized as viable cells and analyzed using the CDD Vault, Collaborative Drug Discovery, Burlingame, CA (the Levenberg-Marquardt algorithm; Levenberg, K., […]; Marquardt, D., 1963).
Tables A1 and A2 assign each compound a code for potency in the BaF3 BRAF-KIAA1549 fusion cell proliferation assay: A, B, C, or D. According to the code, A represents an IC50 value <20 nM; B represents an IC50 value ≥20 nM and <100 nM; C represents an IC50 value ≥100 nM and <500 nM; and D represents an IC50 value ≥500 nM.

T1 sequence (P15056 whole entry, change not shown, the tested form may be a part): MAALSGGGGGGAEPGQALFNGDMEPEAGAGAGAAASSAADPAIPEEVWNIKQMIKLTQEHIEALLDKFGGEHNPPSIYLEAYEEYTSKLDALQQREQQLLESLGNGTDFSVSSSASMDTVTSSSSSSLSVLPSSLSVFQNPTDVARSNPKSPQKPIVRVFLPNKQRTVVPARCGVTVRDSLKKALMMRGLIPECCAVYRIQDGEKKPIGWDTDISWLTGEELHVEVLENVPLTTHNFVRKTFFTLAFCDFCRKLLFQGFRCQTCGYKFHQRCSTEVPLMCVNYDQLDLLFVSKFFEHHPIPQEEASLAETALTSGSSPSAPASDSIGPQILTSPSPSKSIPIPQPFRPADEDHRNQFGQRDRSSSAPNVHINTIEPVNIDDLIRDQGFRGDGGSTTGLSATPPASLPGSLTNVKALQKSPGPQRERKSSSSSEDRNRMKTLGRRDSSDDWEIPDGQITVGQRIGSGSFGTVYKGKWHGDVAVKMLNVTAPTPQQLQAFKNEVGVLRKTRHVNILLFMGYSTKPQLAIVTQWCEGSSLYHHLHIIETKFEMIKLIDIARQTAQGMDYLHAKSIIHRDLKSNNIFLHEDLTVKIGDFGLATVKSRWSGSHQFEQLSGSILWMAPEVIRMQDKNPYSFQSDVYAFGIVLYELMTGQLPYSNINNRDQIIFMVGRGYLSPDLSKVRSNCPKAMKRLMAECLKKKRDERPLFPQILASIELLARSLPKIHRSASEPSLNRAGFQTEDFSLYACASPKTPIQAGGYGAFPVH

Row | GI50 [nM] | SMILES
1 | < 20 | Cc1ccc(NC(=O)c2cc(C(F)(F)F)c(F)cn2)cc1Nc1ncccc1-c1ncnc2[nH]cnc12 [IA-115, N-(3-((3-(9H-purin-6-yl)pyridin-2-yl)amino)-4-methylphenyl)-5-fluoro-4-(trifluoromethyl)picolinamide]
2 | 100 to 500 | Cc1cc(NC(=O)c2cc(C(F)(F)F)ccn2)cc(Nc2ncccc2-c2ncnc3[nH]cnc23)c1C [Compound I-63, N-(3-((3-(9H-purin-6-yl)pyridin-2-yl)amino)-4,5-dimethylphenyl)-4-(trifluoromethyl)picolinamide]
3 | 20 to 100 | Cc1ccc(NC(=O)C[C@@H]2CCO[C@@H](C(F)(F)F)C2)cc1Nc1ncccc1-c1ncnc2[nH]cnc12 (single isomer, unassigned) [IA-148]
4 | < 20 | Cc1ccc(NC(=O)c2cccc(C(F)(F)F)c2)cc1Nc1ncccc1-c1ncnc2[nH]cnc12 [IA-145, N-(3-((3-(9H-purin-6-yl)pyridin-2-yl)amino)-4-methylphenyl)-3-(trifluoromethyl)benzamide]
5 | < 20 | Cc1ccc(NC(=O)c2ccc(Cl)c(C#N)c2)cc1Nc1ncccc1-c1ncnc2[nH]cnc12 [Compound I-22, N-(3-((3-(9H-purin-6-yl)pyridin-2-yl)amino)-4-methylphenyl)-4-chloro-3-cyanobenzamide]
6 | < 20 | Cc1ccc(NC(=O)c2nccc(C(F)(F)F)c2F)cc1Nc1ncccc1-c1ncnc2[nH]cnc12 [IA-116, N-(3-((3-(9H-purin-6-yl)pyridin-2-yl)amino)-4-methylphenyl)-3-fluoro-4-(trifluoromethyl)picolinamide]
7 | < 20 | Cc1nc2c(-c3cccnc3Nc3cc(NC(=O)c4cc(C(O)C(F)(F)F)ccn4)ccc3C)ncnc2[nH]1 (centres unmarked) [IA-130, N-(4-methyl-3-((3-(8-methyl-9H-purin-6-yl)pyridin-2-yl)amino)phenyl)-4-(2,2,2-trifluoro-1-hydroxyethyl)picolinamide]
8 | < 20 | Cc1ccc(C(=O)Nc2ccc(C)c(Nc3ncccc3-c3ncnc4[nH]cnc34)c2)cc1C#N [Compound I-43, N-(3-((3-(9H-purin-6-yl)pyridin-2-yl)amino)-4-methylphenyl)-3-cyano-4-methylbenzamide]
9 | 100 to 500 | Cc1ccc(NC(=O)C[C@@H]2CCN[C@@H](C(F)(F)F)C2)cc1Nc1ncccc1-c1ncnc2[nH]cnc12 (single isomer, unassigned) [IA-144]
10 | < 20 | Cc1ccc(NC(=O)C[C@H]2CCC[C@@H](C(F)(F)F)C2)cc1Nc1ncccc1-c1ncnc2[nH]cnc12 (single isomer, unassigned) [IA-137]
11 | 20 to 100 | Cc1cnc(C(=O)Nc2ccc(C)c(Nc3ncccc3-c3ncnc4[nH]cnc34)c2)cc1C#N [Compound I-71, N-(3-((3-(9H-purin-6-yl)pyridin-2-yl)amino)-4-methylphenyl)-4-cyano-5-methylpicolinamide]
12 | 20 to 100 | COc1nc2c(-c3cccnc3Nc3cc(NC(=O)c4cc(C(F)(F)F)ccn4)ccc3C)ncnc2[nH]1 [IA-123, N-(3-(3-(8-methoxy-9H-purin-6-yl)pyridin-2-ylamino)-4-methylphenyl)-4-(trifluoromethyl)picolinamide]
13 | < 20 | Cc1ccc(NC(=O)c2cc(C(F)(F)F)c(OCCN(C)C)cn2)cc1Nc1ncccc1-c1ncnc2[nH]cnc12 [IA-97, N-(3-(3-(9H-purin-6-yl)pyridin-2-ylamino)-4-methylphenyl)-5-(2-(dimethylamino)ethoxy)-4-(trifluoromethyl)picolinamide]
14 | < 20 | C#Cc1ccc(C(=O)Nc2ccc(C)c(Nc3ncccc3-c3ncnc4[nH]cnc34)c2)cc1 [Compound I-31, N-(3-((3-(9H-purin-6-yl)pyridin-2-yl)amino)-4-methylphenyl)-4-ethynylbenzamide]
15 | 20 to 100 | N#Cc1cc(C(=O)Nc2ccc(F)c(Nc3ncccc3-c3ncnc4[nH]cnc34)c2)ccc1Cl [Compound I-50, N-(3-(3-(9H-purin-6-yl)pyridin-2-ylamino)-4-fluorophenyl)-4-chloro-3-cyanobenzamide]
16 | 20 to 100 | Cc1ccc(NC(=O)C[C@H]2CCO[C@@H](C(F)(F)F)C2)cc1Nc1ncccc1-c1ncnc2[nH]cnc12 (single isomer, unassigned) [IA-146]

Second part, the compound before the results:

Row | SMILES | GI50 [nM]
17 | COc1cnc(C(=O)Nc2ccc(C)c(Nc3ncccc3-c3ncnc4[nH]cnc34)c2)cc1C(F)(F)F [IA-100, N-(3-(3-(9H-purin-6-yl)pyridin-2-ylamino)-4-methylphenyl)-5-methoxy-4-(trifluoromethyl)picolinamide] | 20 to 100
18 | Cc1ncc(NC(=O)c2ccnc(C(F)(F)F)c2)cc1Nc1ncccc1-c1ncnc2[nH]cnc12 [Compound I-17, N-(5-(3-(9H-purin-6-yl)pyridin-2-ylamino)-6-methylpyridin-3-yl)-2-(trifluoromethyl)isonicotinamide] | 20 to 100
19 | Cc1ccc(NC(=O)C[C@H]2CCC[C@H](C(F)(F)F)C2)cc1Nc1ncccc1-c1ncnc2[nH]cnc12 (single isomer, unassigned) [IA-139] | < 20
20 | Cc1ccc(NC(=O)CC2CC(C(F)(F)F)CCO2)cc1Nc1ncccc1-c1ncnc2[nH]cnc12 (centres unmarked) [IA-105, N-(3-((3-(9H-purin-6-yl)pyridin-2-yl)amino)-4-methylphenyl)-2-(4-(trifluoromethyl)tetrahydro-2H-pyran-2-yl)acetamide] | 20 to 100
21 | Cc1ccc(C(=O)Nc2ccnc(C(F)(F)F)c2)cc1Nc1ncccc1-c1ncnc2[nH]cnc12 [Compound I-35, 3-((3-(9H-purin-6-yl)pyridin-2-yl)amino)-4-methyl-N-(2-(trifluoromethyl)pyridin-4-yl)benzamide] | 20 to 100
22 | Cc1ccc(NC(=O)c2ccc(C(F)(F)F)c(C#N)n2)cc1Nc1ncccc1-c1ncnc2[nH]cnc12 [Compound I-59, N-(3-((3-(9H-purin-6-yl)pyridin-2-yl)amino)-4-methylphenyl)-6-cyano-5-(trifluoromethyl)picolinamide] | 100 to 500
23 | Cc1ccc(NC(=O)CN2CCCCC(F)(F)C2)cc1Nc1ncccc1-c1ncnc2[nH]cnc12 [IA-112, N-(3-(3-(9H-purin-6-yl)pyridin-2-ylamino)-4-methylphenyl)-2-(3,3-difluoroazepan-1-yl)acetamide] | 100 to 500
24 | Cc1ccc(NC(=O)c2ccc(C#N)cc2)cc1Nc1ncccc1-c1ncnc2[nH]cnc12 [Compound I-26, N-(3-((3-(9H-purin-6-yl)pyridin-2-yl)amino)-4-methylphenyl)-4-cyanobenzamide] | 100 to 500
25 | Cc1c(F)cc(NC(=O)c2ccnc(C3(C#N)CC3)c2)cc1Nc1ncccc1-c1ncnc2[nH]cnc12 [Compound I-62, N-(3-((3-(9H-purin-6-yl)pyridin-2-yl)amino)-5-fluoro-4-methylphenyl)-2-(1-cyanocyclopropyl)isonicotinamide] | < 20
26 | Cc1ccc(C(=O)Nc2cncc(C(F)(F)F)c2)cc1Nc1ncccc1-c1ncnc2[nH]cnc12 [Compound I-30, 3-((3-(9H-purin-6-yl)pyridin-2-yl)amino)-4-methyl-N-(5-(trifluoromethyl)pyridin-3-yl)benzamide] | < 20
27 | Cc1ccc(-c2ncnc3[nH]cnc23)c(Nc2cc(NC(=O)c3cc(C(F)(F)F)ccn3)ccc2C)n1 [Compound I-67, N-(4-methyl-3-((6-methyl-3-(9H-purin-6-yl)pyridin-2-yl)amino)phenyl)-4-(trifluoromethyl)picolinamide] | 20 to 100
28 | Cc1ccc(NC(=O)c2cc(C(F)(F)F)c(OCCO)cn2)cc1Nc1ncccc1-c1ncnc2[nH]cnc12 [IA-104, N-(3-(3-(9H-purin-6-yl)pyridin-2-ylamino)-4-methylphenyl)-5-(2-hydroxyethoxy)-4-(trifluoromethyl)picolinamide] | < 20
29 | Cc1nc(-c2cccnc2Nc2cc(NC(=O)c3cc(C(F)(F)F)ccn3)ccc2C)c2nc[nH]c2n1 [IA-150, N-(4-methyl-3-((3-(2-methyl-9H-purin-6-yl)pyridin-2-yl)amino)phenyl)-4-(trifluoromethyl)picolinamide] | ≥ 500
